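All cell lines were grown in 96-well plates and treated with compound for 48 hours. TGI is the concentration that stops growth completely.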
Legend:
Experiment in all cases: inhibition of tumour cell growth, NCI panel, 48 h
MDA-MB-231 breast = tested on: MDA-MB-231 breast
SK-OV-3 ovarian = tested on: SK-OV-3 ovarian
HOP-92 NSCLC = tested on: HOP-92 NSCLC
BT-549 breast = tested on: BT-549 breast
HS 578T breast = tested on: HS 578T breast
RPMI-8226 leukemia = tested on: RPMI-8226 leukemia
NCI-H460 lung = tested on: NCI-H460 lung
SNB-19 CNS = tested on: SNB-19 CNS
OVCAR-3 ovarian = tested on: OVCAR-3 ovarian
SW-620 colon = tested on: SW-620 colon
HCT-116 colon = tested on: HCT-116 colon
MOLT-4 leukemia = tested on: MOLT-4 leukemia
DU-145 prostate = tested on: DU-145 prostate
SNB-75 CNS = tested on: SNB-75 CNS
SF-268 CNS = tested on: SF-268 CNS
HOP-62 NSCLC = tested on: HOP-62 NSCLC
SF-539 CNS = tested on: SF-539 CNS
SN12C renal = tested on: SN12C renal
SK-MEL-2 melanoma = tested on: SK-MEL-2 melanoma

Row | Structure (SMILES) | TGI (MDA-MB-231 breast) | TGI (SK-OV-3 ovarian) | TGI (HOP-92 NSCLC) | TGI (BT-549 breast) | TGI (HS 578T breast) | TGI (RPMI-8226 leukemia) | TGI (NCI-H460 lung) | TGI (SNB-19 CNS) | TGI (OVCAR-3 ovarian) | TGI (SW-620 colon) | TGI (HCT-116 colon) | TGI (MOLT-4 leukemia) | TGI (DU-145 prostate) | TGI (SNB-75 CNS) | TGI (SF-268 CNS) | TGI (HOP-62 NSCLC) | TGI (SF-539 CNS) | TGI (SN12C renal) | TGI (SK-MEL-2 melanoma)
1 | Cc1c2n(c3ccccc13)S(=O)(=O)c1ccccc1-2 | 39.4 µM | 31.6 µM | 73.6 µM | > 100 µM | 54.8 µM | > 100 µM | > 100 µM | 46.9 µM | > 100 µM | > 100 µM | > 100 µM | > 100 µM | > 100 µM | – | – | – | – | – | –
2 | CCOC(=O)/C(=C\NC(C)(C)C)c1nc2ccccc2[nH]1 | – | 78.8 µM | 56.8 µM | 68.3 µM | 45.8 µM | 39.2 µM | 37.3 µM | > 100 µM | 35 µM | 93 µM | 95.2 µM | – | > 100 µM | 68.7 µM | 55.9 µM | 58.5 µM | 39.4 µM | 75.6 µM | –
3 | O=C(CC(O)(C(F)(F)F)C(F)(F)Cl)CC(O)(C(F)(F)F)C(F)(F)Cl (configuration not stated) | 5.43 µM | 4.69 µM | 4.57 µM | – | 6.69 µM | > 10 µM | 8.85 µM | > 10 µM | 9.14 µM | > 10 µM | 5.31 µM | > 10 µM | > 10 µM | > 10 µM | > 10 µM | 5.85 µM | > 10 µM | 9.8 µM | 4.15 µM
4 | COc1cc2oc(=O)cc(C)c2c(OC)c1O | > 100 µM | > 100 µM | – | – | 65 µM | > 100 µM | – | > 100 µM | > 100 µM | > 100 µM | > 100 µM | > 100 µM | > 100 µM | > 100 µM | > 100 µM | > 100 µM | > 100 µM | > 100 µM | > 100 µM
5 | C[C@@H]1[C@H](O)CC2=C(CC[C@@H](O)C2(C)C)[C@@]1(CO)CCc1ccoc1 | > 50 µM | > 50 µM | > 50 µM | > 50 µM | > 50 µM | – | > 50 µM | > 50 µM | > 50 µM | > 50 µM | > 50 µM | > 50 µM | – | > 50 µM | – | > 50 µM | > 50 µM | > 50 µM | > 50 µM
6 | C=C1[C@H]2O[C@H]2[C@@H](OC(C)=O)[C@@]2(C)[C@@H](OC(C)=O)C[C@@H](OC(=O)CCC)[C@@](C)(O)[C@@H]2[C@@H](OC(C)=O)[C@]2(O)[C@@H](C)C(=O)O[C@H]2[C@H]1Cl | > 100 µM | – | > 100 µM | > 100 µM | – | > 100 µM | > 100 µM | > 100 µM | > 100 µM | > 100 µM | > 100 µM | > 100 µM | > 100 µM | > 100 µM | > 100 µM | > 100 µM | > 100 µM | > 100 µM | > 100 µM
7 | c1csc(-c2nccc3c2[nH]c2ccccc23)c1 | 48.1 µM | 41.5 µM | 41.5 µM | – | > 100 µM | – | 57 µM | > 100 µM | 49.4 µM | 46.3 µM | 31.8 µM | 51.5 µM | 63.9 µM | 42.8 µM | 56.7 µM | 39.2 µM | 32 µM | 38.8 µM | 41.8 µM
8 | Cc1ccc(S(=O)(=O)NC(=O)Nc2cccc(S(N)(=O)=O)c2)cc1 | > 100 µM | > 100 µM | > 100 µM | – | > 100 µM | > 100 µM | > 100 µM | > 100 µM | > 100 µM | > 100 µM | > 100 µM | > 100 µM | > 100 µM | > 100 µM | > 100 µM | > 100 µM | > 100 µM | – | > 100 µM
9 | COCCOC(=O)NCn1cc(-c2ccccc2)nn1 | > 100 µM | – | > 100 µM | > 100 µM | – | > 100 µM | > 100 µM | > 100 µM | – | > 100 µM | > 100 µM | > 100 µM | > 100 µM | – | – | > 100 µM | > 100 µM | > 100 µM | > 100 µM
10 | O=c1[nH]nc(-c2ccccc2)n1/N=C/c1ccco1 | – | > 100 µM | > 100 µM | 94.2 µM | > 100 µM | – | > 100 µM | > 100 µM | > 100 µM | > 100 µM | > 100 µM | > 100 µM | > 100 µM | > 100 µM | > 100 µM | > 100 µM | > 100 µM | > 100 µM | > 100 µM
11 | COc1ccc2c(c1)c1c(n2CCN2CCOCC2)-c2cccc(OC)c2CC1 | > 100 µM | > 100 µM | > 100 µM | > 100 µM | > 100 µM | 68.1 µM | > 100 µM | – | > 100 µM | > 100 µM | > 100 µM | 76.7 µM | > 100 µM | – | > 100 µM | > 100 µM | > 100 µM | > 100 µM | > 100 µM
12 | c1cc(-c2ccc(-c3nc4ccc(C5=NCCN5)cc4s3)s2)ccc1C1=NCCN1 | 1.49 µM | – | 1.08 µM | 5.27 µM | – | 1.22 µM | – | 9.38 µM | 5.25 µM | > 100 µM | 1.35 µM | 0.879 µM | 0.677 µM | – | 0.662 µM | 0.257 µM | 0.319 µM | – | 2.96 µM
13 | O/N=C1\CC2(N3CCOCC3)CCC1(c1ccccc1)CC2 | – | > 100 µM | > 100 µM | > 100 µM | > 100 µM | > 100 µM | > 100 µM | > 100 µM | > 100 µM | > 100 µM | > 100 µM | > 100 µM | > 100 µM | > 100 µM | > 100 µM | > 100 µM | > 100 µM | > 100 µM | > 100 µM
14 | CN(C)C1(N(C)C)Oc2c(c(=O)n(C)c(=O)n2C)C(c2ccc(C(F)(F)F)cc2)C1(F)F (configuration not stated) | > 100 µM | > 100 µM | > 100 µM | > 100 µM | – | > 100 µM | > 100 µM | > 100 µM | > 100 µM | > 100 µM | > 100 µM | – | > 100 µM | > 100 µM | > 100 µM | > 100 µM | – | – | > 100 µM
15 | COc1ccc2c(c1)CC1COc3cc(OC)ccc3C1O2 (configuration not stated) | > 100 µM | > 100 µM | > 100 µM | > 100 µM | – | > 100 µM | – | – | > 100 µM | > 100 µM | > 100 µM | > 100 µM | > 100 µM | – | > 100 µM | > 100 µM | > 100 µM | > 100 µM | > 100 µM
16 | CCC(=O)NI1OC(=O)c2ccccc21 | > 100 µM | > 100 µM | > 100 µM | > 100 µM | – | > 100 µM | > 100 µM | – | > 100 µM | > 100 µM | > 100 µM | > 100 µM | > 100 µM | > 100 µM | > 100 µM | > 100 µM | > 100 µM | > 100 µM | > 100 µM
17 | CC(C)(C)c1cc2c(c(C(C)(C)C)c1O)CC(=O)O2 | 75.4 µM | > 100 µM | 17.9 µM | – | 97.3 µM | 65 µM | > 100 µM | > 100 µM | 50.7 µM | > 100 µM | > 100 µM | > 100 µM | > 100 µM | – | > 100 µM | 92.8 µM | 62.5 µM | > 100 µM | 47.7 µM
18 | CCOc1ccccc1NC(=O)C(=O)C(/C(=N/N)C(=O)OC)c1nc2ccc([N+](=O)[O-])cc2[nH]c1=O (configuration not stated) | > 100 µM | > 100 µM | > 100 µM | > 100 µM | > 100 µM | > 100 µM | > 100 µM | – | > 100 µM | > 100 µM | > 100 µM | > 100 µM | – | > 100 µM | > 100 µM | > 100 µM | > 100 µM | > 100 µM | > 100 µM
19 | Cc1ccc(/C=C/C(=N/NC(=O)N/N=C(/C=C/c2ccc(C)cc2)C(C)C)C(C)C)cc1 | > 10 µM | – | > 10 µM | > 10 µM | – | > 10 µM | > 10 µM | > 10 µM | > 10 µM | > 10 µM | > 10 µM | > 10 µM | > 10 µM | – | > 10 µM | > 10 µM | – | > 10 µM | > 10 µM
20 | COC(=O)c1c(C)[nH]c2c1C(=O)C(=O)c1nc(C)c(C)nc1-2 | – | 18.5 µM | 24.8 µM | 23 µM | 58.6 µM | 47.3 µM | > 100 µM | 27.4 µM | 23.3 µM | 41.7 µM | 18.2 µM | 95 µM | 25.5 µM | 7.95 µM | 23.6 µM | 22 µM | 24.8 µM | 12.8 µM | 16.3 µM
21 | CCN(CC)Cc1ccccc1CC(=O)N1c2ccccc2C(=O)Nc2cccnc21 | > 100 µM | > 100 µM | > 100 µM | – | > 100 µM | > 100 µM | > 100 µM | > 100 µM | > 100 µM | > 100 µM | > 100 µM | > 100 µM | > 100 µM | – | > 100 µM | > 100 µM | > 100 µM | > 100 µM | > 100 µM
22 | O=C1CNC(=O)/C(=C/c2c[nH]c3ccccc23)N1 | – | > 100 µM | > 100 µM | > 100 µM | > 100 µM | > 100 µM | > 100 µM | > 100 µM | > 100 µM | > 100 µM | > 100 µM | > 100 µM | > 100 µM | – | > 100 µM | > 100 µM | – | > 100 µM | > 100 µM

— PubChem BioAssay (NCI)
